Laboratory results: patent US20080032992A1, “New Pyridine Analogues V” (ASTRAZENECA AB, priority 2006, published 2008)

Target: T1, P2Y12 receptor (Homo sapiens, UniProt Q9H244)
T1 construct: expressed in transfected cells; host or cells: CHO cells (membranes)
Assay: Functional inhibition of 2-Me-S-ADP induced P2Y12 signalling (35S-GTPγS binding, membranes from P2Y12 transfected CHO-cells)
Format: biochemical
Details: EC80 concentration of agonist 2-methyl-thio-adenosine diphosphate, 30° C. for 45 min
Experimental: Functional inhibition of the P2Y12 receptor can be measured by in vitro assays using cell membranes from P2Y12 transfected CHO-cells, the methodology is indicated below.
Functional inhibition of 2-Me-S-ADP induced P2Y12 signalling: 5 μg of membranes were diluted in 200 μl of 200 mM NaCl, 1 mM MgCl2, 50 mM HEPES (pH 7.4), 0.01% BSA, 30 μg/ml saponin and 10 μM GDP. To this was added an EC80 concentration of agonist (2-methyl-thio-adenosine diphosphate), the required concentration of test compound and 0.1 μCi ^35S-GTPγS. The reaction was allowed to proceed at 30° C. for 45 min. Samples were then transferred on to GF/B filters using a cell harvester and washed with wash buffer (50 mM Tris (pH 7.4), 5 mM MgCl2, 50 mM NaCl). Filters were then covered with scintillate and counted for the amount of ^35S-GTPγS retained by the filter. Maximum activity was that determined in the presence of the agonist and minimum activity in the absence of the agonist following subtraction of the value determined for non-specific activity. The effect of compounds at various concentrations was plotted according to the equation y=A+((B−A)/(1+((C/x)ˆD))) and IC50 estimated where
A is the bottom plateau of the curve i.e. the final minimum y value
B is the top of the plateau of the curve i.e. the final maximum y value
C is the x value at the middle of the curve. This represents the log EC50 value when A+B=100 […]

T1 sequence (Q9H244 whole entry): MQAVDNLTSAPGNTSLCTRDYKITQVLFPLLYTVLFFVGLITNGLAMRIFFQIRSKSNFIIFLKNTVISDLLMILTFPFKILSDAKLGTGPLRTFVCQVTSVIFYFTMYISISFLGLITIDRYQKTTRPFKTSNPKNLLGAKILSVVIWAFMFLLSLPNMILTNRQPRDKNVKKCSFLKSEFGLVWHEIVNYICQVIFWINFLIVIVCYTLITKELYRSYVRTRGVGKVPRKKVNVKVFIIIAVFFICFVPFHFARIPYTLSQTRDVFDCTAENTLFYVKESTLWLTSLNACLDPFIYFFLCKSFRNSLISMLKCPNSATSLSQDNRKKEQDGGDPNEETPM

| IC50 | Compound |
| --- | --- |
| 330 nM | CCOC(=O)c1cc(C#N)c(N2CCC(c3nnc(-c4ccccc4)[nH]3)CC2)nc1C [Example 3, Ethyl 5-cyano-2-methyl-6-[4-(5-phenyl-4-h-1,2,4-triazol-3-yl)piperidin-1-yl]nicotinate] |
| 690 nM | CCOC(=O)c1cc(C#N)c(N2CCN(Cc3cn(-c4ccccc4)nn3)CC2)nc1C [Example 2, Ethyl 5-cyano-2-methyl-6-{4-[(1-phenyl-1H-1,2,3-triazol-4-yl)methyl]piperazin-1-yl}nicotinate] |
